The source of these data is ChEMBL document CHEMBL3351836, “Inhibition of carbonic anhydrase isoforms I, II, IX and XII with novel Schiff bases: identification of selective inhibitors for the tumor-associated isoforms over the cytosolic ones” (Bioorg Med Chem, 2014).

For the assay, the target named is Carbonic anhydrase 9 (Homo sapiens, UniProt Q16790). The assay is described as follows: Inhibition of human CA-9 after 15 mins by stopped-flow CO2 hydration method.
Usually Ki stands for the equilibrium dissociation constant of an inhibitor or competing ligand from its target. For `NS(=O)(=O)c1ccc(CC/N=C/c2ccc(-c3ccccn3)cc2)cc1`, the Ki amounted to 27.9 nM.

In the case of `NS(=O)(=O)c1ccc(CC/N=C/c2ccc(S(=O)(=O)O)o2)cc1`, affinity was put at a Ki of 193 nM. The same measure for `NS(=O)(=O)c1ccc(CC/N=C/c2c[nH]c3ccc(Br)cc23)cc1`: 1880 nM. Then `NS(=O)(=O)c1ccc(/N=C/c2ccc(-c3ccccn3)cc2)cc1`, with 162 nM; and `CSc1ccc(/C=N/CCc2ccc(S(N)(=O)=O)cc2)cc1`, with 23.6 nM.

With `NS(=O)(=O)c1ccc(CC/N=C/c2cccc(Br)c2O)cc1`, the Ki worked out at 251 nM.

`NS(=O)(=O)c1ccc(/N=C/c2csc3ccccc23)cc1` displayed a Ki of 197 nM. The same measure for `NS(=O)(=O)c1ccc(CC/N=C/c2c(F)c(F)cc(F)c2F)cc1`: 213 nM. Then `N#Cc1ccc(/C=N/CCc2ccc(S(N)(=O)=O)cc2)cc1`, with 18.5 nM; and `NS(=O)(=O)c1ccc(CC/N=C/c2ccc(-c3ccccc3)cc2)cc1`, with 244 nM; and `NS(=O)(=O)c1ccc(/N=C/c2ccc(-c3ccccc3)cc2)c(F)c1`, with 113 nM. The same measure for `NS(=O)(=O)c1ccc(CC/N=C/c2ccc(Br)cc2O)cc1`: 106 nM; for `COc1cc([N+](=O)[O-])ccc1/C=N/CCc1ccc(S(N)(=O)=O)cc1`: 154 nM; for `NS(=O)(=O)c1ccc(/N=C/c2ccco2)c(F)c1`: 165 nM. Compound `COc1ccc(/C=N/CCc2ccc(S(N)(=O)=O)cc2)c(O)c1` had an inhibition constant (Ki) of 1870 nM. In turn, `NS(=O)(=O)c1ccc(/N=C/c2ccc(Br)cc2O)cc1` showed a Ki of 28.1 nM.
